Reference: ChEMBL document CHEMBL4665727, “Discovery of biphenyl pyrazole scaffold for neurodegenerative diseases: A novel class of acetylcholinesterase-centered multitargeted ligands” (Bioorg Med Chem Lett, 2020)
pEC50, pIC50, pKd: −log10 of the molar value. The source made the active and inactive calls. The calls are words filed in the database; no cut-off is given here.

Assays:
SH-SY5Y = experiment: Protection against amyloid beta oligomer-induced cytotoxicity in human SH-SY5Y cells expressing wild-type Tau assessed as cell viability at 10 uM by MTT assay; assay type: functional; details: read-out: Activity
[1] = Stability of compound in gastric fluid; assay type: physicochemical; details: simulated gi fluid
[2] = molecular target: T1, Microtubule-associated protein tau (Homo sapiens, UniProt P10636); experiment: Binding affinity to tau (unknown origin) assessed as dissociation constant by microscale thermophoresis assay
[3] = molecular target: T1, Microtubule-associated protein tau; experiment: Binding affinity to tau (unknown origin) assessed as dissociation constant by isothermal titration calorimetry
[4] = molecular target: T1, Microtubule-associated protein tau; experiment: Binding affinity to tau (unknown origin) assessed as dissociation constant by SPR analysis
[5] = molecular target: T1, Microtubule-associated protein tau; experiment: Inhibition of tau oligomerization in human […] cells by TR-FRET assay; assay type: cell-based
Acetylcholinesterase [6] = molecular target: T2, Acetylcholinesterase (Homo sapiens, UniProt P22303); experiment: Inhibition of AChE (unknown origin) using acetylthiocholine iodide as substrate by UV-vis spectrophotometry based Ellman's method
[7] = Permeability in human Caco-2 cells; assay type: ADME, cell-based
Acetylcholinesterase [8] = molecular target: T2, Acetylcholinesterase; experiment: Binding affinity to AChE (unknown origin) assessed as dissociation constant by SPR analysis
HEL 299 = experiment: Cytotoxicity against HEL 299 cells by MTT assay; assay type: cell-based; details: human
[9] = Metabolic stability in human plasma; assay type: ADME, cell-free
[10] = molecular target: T1, Microtubule-associated protein tau; experiment: Binding affinity to tau (unknown origin) assessed as exothermal interaction by isothermal titration calorimetry
[11] = Stability of compound in intestinal juice
Acetylcholinesterase [12] = molecular target: T2, Acetylcholinesterase; experiment: Mixed inhibition of AChE (unknown origin) using acetylthiocholine iodide as substrate by UV-vis spectrophotometry based Lineweaver-burk plot analysis
[13] = Permeability of compound by PAMPA-BBB assay

T2 sequence (P22303 whole entry): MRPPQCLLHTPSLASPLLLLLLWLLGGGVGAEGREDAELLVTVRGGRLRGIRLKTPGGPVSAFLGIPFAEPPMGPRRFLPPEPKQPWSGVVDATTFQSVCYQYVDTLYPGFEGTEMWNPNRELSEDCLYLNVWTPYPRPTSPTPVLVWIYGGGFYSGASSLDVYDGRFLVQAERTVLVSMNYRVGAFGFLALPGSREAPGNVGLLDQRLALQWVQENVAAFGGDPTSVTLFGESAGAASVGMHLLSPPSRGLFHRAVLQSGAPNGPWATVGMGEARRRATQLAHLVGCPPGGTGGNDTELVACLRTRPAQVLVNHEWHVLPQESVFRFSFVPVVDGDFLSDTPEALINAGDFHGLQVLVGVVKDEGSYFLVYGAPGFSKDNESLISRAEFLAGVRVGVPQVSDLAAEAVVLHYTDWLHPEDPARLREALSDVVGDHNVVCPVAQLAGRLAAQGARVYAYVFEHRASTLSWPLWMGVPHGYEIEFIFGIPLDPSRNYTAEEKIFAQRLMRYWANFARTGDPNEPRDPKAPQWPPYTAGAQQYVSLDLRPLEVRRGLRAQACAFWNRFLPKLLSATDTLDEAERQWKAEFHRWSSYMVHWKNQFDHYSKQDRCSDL
T1 sequence (P10636 whole entry): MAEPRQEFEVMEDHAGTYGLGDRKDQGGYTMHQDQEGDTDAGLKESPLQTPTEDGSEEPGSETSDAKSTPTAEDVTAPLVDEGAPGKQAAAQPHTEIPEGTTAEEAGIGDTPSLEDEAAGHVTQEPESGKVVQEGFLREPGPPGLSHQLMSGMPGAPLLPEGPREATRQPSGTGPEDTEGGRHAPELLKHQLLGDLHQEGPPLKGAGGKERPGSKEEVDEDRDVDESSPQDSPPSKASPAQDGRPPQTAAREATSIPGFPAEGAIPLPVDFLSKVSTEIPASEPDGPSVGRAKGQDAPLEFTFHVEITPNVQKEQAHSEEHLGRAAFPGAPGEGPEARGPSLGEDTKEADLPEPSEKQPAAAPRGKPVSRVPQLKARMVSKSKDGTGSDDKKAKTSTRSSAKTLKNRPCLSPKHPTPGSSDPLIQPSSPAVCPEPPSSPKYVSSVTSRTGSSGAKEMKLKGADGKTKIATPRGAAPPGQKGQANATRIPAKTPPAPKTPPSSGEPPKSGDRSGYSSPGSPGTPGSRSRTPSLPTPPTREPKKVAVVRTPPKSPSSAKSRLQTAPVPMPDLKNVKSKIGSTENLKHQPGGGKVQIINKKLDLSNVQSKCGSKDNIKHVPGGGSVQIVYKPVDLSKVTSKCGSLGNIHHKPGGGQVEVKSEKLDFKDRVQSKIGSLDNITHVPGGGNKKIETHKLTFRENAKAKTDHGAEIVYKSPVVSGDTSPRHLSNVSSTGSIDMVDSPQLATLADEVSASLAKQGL

With CCn1cc(CNCc2c[nH]nc2-c2ccc(-c3ccccc3)cc2)cn1 the viability at 10 µM (SH-SY5Y) was 75.1%, the Stabilty [1] was “Stable” and the pKd [2] was 6.04. For the same compound, the pKd [3] was 6.07, the pKd [4] was 6.23 and the pEC50 [5] was 6.60. For the same compound, the pIC50 (Acetylcholinesterase [6]) was 6.46, the permeability [7] was “Permeable” and the pKd (Acetylcholinesterase [8]) was 5.85. The Activity (HEL 299) was “Non-Toxic”, the Stabilty [9] was “Stable” and the deltaH [10] was -36.9 kcal/mol. For the same compound, the Stability [11] was “Stable”, the inhibition (Acetylcholinesterase [12]) was “Active” and the Papp [13] was 33.5 ×10⁻⁶ cm/s.

Nc1c2c(nc3ccccc13)CCCC2 [TACRINE] gave a viability at 10 µM (SH-SY5Y) of 29.5%.

With CC(C)c1ccc2c(c1)c(SC(C)(C)C)c(CC(C)(C)C(=O)O)n2Cc1ccc(Cl)cc1 the viability at 10 µM (SH-SY5Y) was 52.4%.

For CN(C)c1ccc2c(c1)Sc1cc(N(C)C)ccc1N2 [HYDROMETHYLTHIONINE], the viability at 10 µM (SH-SY5Y) was 32.1%.

Work on COc1cc2c(cc1OC)C(=O)C(CC1CCN(Cc3ccccc3)CC1)C2 (centres undefined) [DONEPEZIL] yielded a viability at 10 µM (SH-SY5Y) of 39.3%.
